From patent US12378243B2, “Quinoline compounds as inhibitors of KRAS” (Incyte Corporation, priority 2021, dated 2025) come the findings set out here.

pIC50: −log10 of the molar value.

One series addresses KRAS G12D (Homo sapiens, UniProt P01116, G12D). The series can be described thus: GDP-GTP exchange assay, KRAS G12D. Type of series: biochemical. The note with it: bodipy-loaded KRAS G12D 2.5 nM, GppNHp 500 uM, SOS1 150 nM; 4 hours pre-incubation, 2 hours incubation; read-out: G12D_exchange. The protocol:
Inhibitors were serially diluted in DMSO and a volume of 0.1 μL was transferred to the wells of a black low volume 384-well plate. […] The exchange was initiated by the addition of a 5 μL/well volume containing 1 mM GppNHp and 300 nM SOS1 in assay buffer. […] The reaction plates were incubated at ambient temperature for 2 hours, a time estimated for complete GDP-GTP exchange in the absence of inhibitor.
Either GraphPad prism or Genedata Screener SmartFit was used to analyze the data. The IC50 values were derived by fitting the data to a four parameter logistic equation producing a sigmoidal dose-response curve with a variable Hill coefficient.
“NA” indicates IC50 not available.

A further series relates to Caco-2 cells. The experiment in a line: Caco2 assay (permeability, A-B). The note with it: Papp absorptive direction (A-B), test compound 50 μM, 120 minutes at 37° C. In kind it is in vitro ADME. As for the experimental part:
Caco-2 cells are grown at 37° C. in an atmosphere of 5% CO2 in DMEM growth medium supplemented with 10% (v/v) fetal bovine serum, 1% (v/v) nonessential amino acids, penicillin (100 U/mL), and streptomycin (100 μg/mL). Confluent cell monolayers are subcultured every 7 days or 4 days for Caco-2 by treatment with 0.05% trypsin containing […]. Caco-2 cells are seeded in 96-well Transwell plates. The seeding density for Caco-2 cells is 14,000 cells/well. DMEM growth medium is replaced every other day after seeding. Cell monolayers are used for transport assays between 22 and 25 days for Caco-2 cells.
Cell culture medium is removed and replaced with HBSS. To measure the TEER, the HBSS is added into the donor compartment (apical side) and receiver compartment (basolateral side). The TEER is measured by using a REMS Autosampler to ensure the integrity of the cell monolayers. Caco-2 cell monolayers with TEER values ≥300 Ω·cm^2 are used for transport experiments. To determine the Papp in the absorptive direction (A-B), solution of test compound (50 μM) in HBSS is added to the donor compartment (apical side), while HBSS solution with 4% BSA is added to the receiver compartment (basolateral side). The apical volume was 0.075 mL, and the basolateral volume is 0.25 mL. The incubation period is 120 minutes at 37° C. in an atmosphere of 5% CO2. At the end of the incubation period, samples from the donor and receiver sides are removed and an equal volume of acetonitrile is added for protein precipitation. The supernatants are collected after centrifugation (3000 rpm, Allegra X-14R Centrifuge from Beckman Coulter, Indianapolis, IN) for LCMS analysis. The permeability value is determined according to the equation:
[formula] • where the flux rate (F, mass/time) is calculated from the slope of cumulative amounts of compound of interest on the receiver side, SA is the surface area of the cell membrane, VD is the donor volume, and MD is the initial amount of the solution in the donor chamber.
The symbol “+” indicates a Caco-2 value of […], “++” indicates a Caco-2 value of >0.5 but ≤1; and “+++” indicates a Caco-2 value of >1. “NA” indicates IC50 not available.
On the technique in general: Caco-2 cells form a polarised layer with tight junctions and transporters.

In the next series the target is KRAS G12V mutant (Homo sapiens, UniProt P01116, G12V). The experiment in a line: GDP-GTP exchange assay, KRAS G12V. The note with it: bodipy loaded KRAS G12V 2.5 nM; 3 hours incubation after adding GppNHp-SOS1 mixture; read-out: G12V_exchange. Type of series: biochemical.
KRAS G12V mutant, sequence (P01116 1-188 isoform P01116-2 G12V): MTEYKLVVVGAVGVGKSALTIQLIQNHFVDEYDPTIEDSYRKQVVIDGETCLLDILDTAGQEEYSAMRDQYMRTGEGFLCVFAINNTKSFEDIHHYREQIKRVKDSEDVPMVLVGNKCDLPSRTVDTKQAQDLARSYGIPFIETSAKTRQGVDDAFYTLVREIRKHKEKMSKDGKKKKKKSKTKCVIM

KRAS G12D, sequence (P01116 1-188 isoform P01116-2 G12D): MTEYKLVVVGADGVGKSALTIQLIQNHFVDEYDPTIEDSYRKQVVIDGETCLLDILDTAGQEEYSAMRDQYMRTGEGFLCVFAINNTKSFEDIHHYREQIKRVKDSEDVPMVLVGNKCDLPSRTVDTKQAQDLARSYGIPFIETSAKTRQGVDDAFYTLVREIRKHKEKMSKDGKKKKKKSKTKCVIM

On to `COC(=O)N1[C@@H](c2cc3c(-c4ccc(C(=O)N(C)C)nc4)nc4c(F)c(-c5cccc(Cl)c5Cl)c(CCC#N)cc4c3n2[C@H]2[C@H]3CN[C@@H]2C3)C[C@@H]2C[C@@H]21` [Example 30, Methyl (1S,3R,5S)-3-(1-((1R,4R,5S)-2-azabicyclo[2.1.1]hexan-5-yl)-8-(2-cyanoethyl)-7-(2,3-dichlorophenyl)-4-(6-(dimethylcarbamoyl)pyridin-3-yl)-6-fluoro-1H-pyrrolo[3,2-c]quinolin-2-yl)-2-azabicyclo[3.1.0]hexane-2-carboxylate], for which the pIC50 at KRAS G12D and on KRAS G12V mutant was greater than 7.00 each time. In addition, in the series on Caco-2 cells (Table 4), the Caco-2 result is “+++ (a Caco-2 value of >1)”.
Turning to `COC(=O)N1CCC[C@@H]1c1cc2c(-c3ccc(C(=O)N(C)C)nc3)nc3c(F)c(-c4cccc(Cl)c4Cl)c(CCC#N)cc3c2n1[C@H]1[C@H]2CN[C@@H]1C2` [Example 32, Methyl (2R)-2-(1-((1R,4R,5S)-2-azabicyclo[2.1.1]hexan-5-yl)-8-(2-cyanoethyl)-7-(2,3-dichlorophenyl)-4-(6-(dimethylcarbamoyl)pyridin-3-yl)-6-fluoro-1H-pyrrolo[3,2-c]quinolin-2-yl)pyrrolidine-1-carboxylate], the pIC50 at KRAS G12D and at KRAS G12V mutant was greater than 7.00 throughout. The Caco-2 result in the series on Caco-2 cells (Table 4) was “++ (a Caco-2 value of >0.5 but ≤1)”.
Turning to `Cc1nc2c(F)c(-c3cccc(Cl)c3Cl)c(CCC#N)cc2c2c1cc([C@@H](C)NC(=O)c1cccnn1)n2[C@H]1[C@H]2CN[C@@H]1C2` [Example 69, N-((1R)-1-(1-((1R,4R,5S)-2-azabicyclo[2.1.1]hexan-5-yl)-8-(2-cyanoethyl)-7-(2,3-dichlorophenyl)-6-fluoro-4-methyl-1H-pyrrolo[3,2-c]quinolin-2-yl)ethyl)pyridazine-3-carboxamide], the pIC50 on KRAS G12D and on KRAS G12V mutant was greater than 7.00 each time. For the same compound, the Caco-2 result with Caco-2 cells (Table 4) is listed as “+++ (a Caco-2 value of >1)”.
For the compound `C[C@H](c1cc2c(-c3ccc(C(C)(C)O)nc3)nc3c(F)c(-c4cccc5ccc(F)cc45)c(CCC#N)cc3c2n1[C@H]1[C@H]2CN[C@@H]1C2)N1CCOCC1=O` [Example 46, 3-(1-((1R,4R,5S)-2-Azabicyclo[2.1.1]hexan-5-yl)-6-fluoro-7-(7-fluoronaphthalen-1-yl)-4-(6-(2-hydroxypropan-2-yl)pyridin-3-yl)-2-((R)-1-(3-oxomorpholino)ethyl)-1H-pyrrolo[3,2-c]quinolin-8-yl)propanenitrile], the pIC50 on KRAS G12D and on KRAS G12V mutant was greater than 7.00 in each case. Moreover, in the series on Caco-2 cells (Table 4), the Caco-2 entry was “+++ (a Caco-2 value of >1)”.
As for `Cc1cnc(-c2nc3c(F)c(-c4cccc(Cl)c4C)c(CCC#N)cc3c3c2cc([C@@H](C)n2ccncc2=O)n3[C@H]2[C@H]3CN[C@@H]2C3)cn1` (single isomer, unassigned) [Example 38], the pIC50 at KRAS G12D and on KRAS G12V mutant was greater than 7.00 throughout. The Caco-2 result with Caco-2 cells (Table 4) was “+++ (a Caco-2 value of >1)”.
For `COC(=O)N1CCC[C@@H]1c1c(Cl)c2c(-c3ccc(C(C)(C)O)nc3)nc3c(F)c(-c4cccc(Cl)c4Cl)c(CCC#N)cc3c2n1[C@H]1[C@H]2CN[C@@H]1C2` [Example 53, Methyl (2R)-2-(1-((1R,4R,5S)-2-azabicyclo[2.1.1]hexan-5-yl)-3-chloro-8-(2-cyanoethyl)-7-(2,3-dichlorophenyl)-6-fluoro-4-(6-(2-hydroxypropan-2-yl)pyridin-3-yl)-1H-pyrrolo[3,2-c]quinolin-2-yl)pyrrolidine-1-carboxylate], the pIC50 on KRAS G12D and on KRAS G12V mutant was greater than 7.00 each time. Further, the Caco-2 result in the series on Caco-2 cells (Table 4) is “+++ (a Caco-2 value of >1)”.
Take `C[C@H](Oc1nc2c(F)c(-c3csc4ccccc34)c(CCC#N)cc2c2c1cc(CN1CCCC1=O)n2[C@H]1[C@H]2CN[C@@H]1C2)[C@@H]1CCCN1C` (single isomer, unassigned) [Example 9]: the pIC50 on KRAS G12D and at KRAS G12V mutant was greater than 7.00 each time. Also, the Caco-2 entry in the series with Caco-2 cells (Table 3) is on record as “+ (a Caco-2 value of 50.5)”.
In the case of `CC(O)c1nc2c(F)c(-c3cccc(Cl)c3Cl)c(CCC#N)cc2c2c1cc([C@H]1C[C@H]3C[C@H]3N1C(=O)C1(F)CC1)n2[C@H]1[C@H]2CN[C@@H]1C2` (stereo partly drawn) [Example 63, 3-(1-((1R,4R,5S)-2-Azabicyclo[2.1.1]hexan-5-yl)-7-(2,3-dichlorophenyl)-6-fluoro-2-((1R,3R,5R)-2-(1-fluorocyclopropane-1-carbonyl)-2-azabicyclo[3.1.0]hexan-3-yl)-4-(1-hydroxyethyl)-1H-pyrrolo[3,2-c]quinolin-8-yl)propanenitrile], the pIC50 on KRAS G12D and on KRAS G12V mutant was greater than 7.00 throughout. Besides, the Caco-2 result with Caco-2 cells (Table 4) is “+++ (a Caco-2 value of >1)”.
For `Cc1cc2c(O[C@@H](C)[C@@H]3CCCN3C)nc3c(F)c(-c4cc(O)cc(Cl)c4Cl)c(CCC#N)cc3c2n1[C@H]1[C@H]2CN[C@@H]1C2` (single isomer, unassigned) [Example 12], the pIC50 at KRAS G12D and at KRAS G12V mutant was greater than 7.00 throughout. The Caco-2 result in the series with Caco-2 cells (Table 3) is recorded as “+ (a Caco-2 value of 50.5)”.
`C[C@H](Oc1nc2c(F)c(-c3cccc4cc(F)c(F)cc34)c(CCC#N)cc2c2c1cc(CCC(=O)N1CCC1)n2[C@H]1[C@H]2CN[C@@H]1C2)[C@@H]1CCCN1C` (single isomer, unassigned) [Example 21]: the pIC50 at KRAS G12D and on KRAS G12V mutant was greater than 7.00 throughout. In addition, in the series with Caco-2 cells (Table 3), the Caco-2 entry was “+ (a Caco-2 value of 50.5)”.
Consider `CC(O)c1nc2c(F)c(-c3cccc(Cl)c3Cl)c(CCC#N)cc2c2c1cc([C@@H](C)NC(=O)C1(C)CC1)n2[C@H]1[C@H]2CN[C@@H]1C2` (stereo partly drawn) [Example 61, N-((1R)-1-(1-((1R,4R,5S)-2-Azabicyclo[2.1.1]hexan-5-yl)-8-(2-cyanoethyl)-7-(2,3-dichlorophenyl)-6-fluoro-4-(1-hydroxyethyl)-1H-pyrrolo[3,2-c]quinolin-2-yl)ethyl)-1-methylcyclopropane-1-carboxamide], for which the pIC50 at KRAS G12D and on KRAS G12V mutant was greater than 7.00 each time. Also, the Caco-2 entry in the series with Caco-2 cells (Table 4) is “++ (a Caco-2 value of >0.5 but ≤1)”.
For `CN(C)C(=O)N1CCC[C@@H]1c1cc2c(-n3cncn3)nc3c(F)c(-c4cccc(Cl)c4Cl)c(CCC#N)cc3c2n1[C@H]1[C@H]2CN[C@@H]1C2` [Example 28, (2R)-2-(1-((1R,4R,5S)-2-azabicyclo[2.1.1]hexan-5-yl)-8-(2-cyanoethyl)-7-(2,3-dichlorophenyl)-6-fluoro-4-(1H-1,2,4-triazol-1-yl)-1H-pyrrolo[3,2-c]quinolin-2-yl)-N,N-dimethylpyrrolidine-1-carboxamide], the pIC50 at KRAS G12D is greater than 7.00; at KRAS G12V mutant, 6.00 to 7.00. Further, the Caco-2 result with Caco-2 cells (Table 4) is “+++ (a Caco-2 value of >1)”.
Taken in the same sequence, the figures for `CC(=O)N1CCC[C@@H]1c1cc2c(-c3ccnc(C)c3)nc3c(F)c(-c4cccc5c4C(C#N)CCC5)c(C)cc3c2n1[C@H]1[C@H]2CN[C@@H]1C2` (single isomer, unassigned) [Example 35] were greater than 7.00, greater than 7.00 and “++ (a Caco-2 value of >0.5 but ≤1)”.
On the same counts, the results for `C[C@H](c1cc2c(-c3ccc(C(C)(C)O)nc3)nc3c(F)c(-c4cccc5ccc(F)cc45)c(CCC#N)cc3c2n1[C@H]1[C@H]2CN[C@@H]1C2)n1ccncc1=O` [Example 37, 3-(1-((1R,4R,5S)-2-Azabicyclo[2.1.1]hexan-5-yl)-6-fluoro-7-(7-fluoronaphthalen-1-yl)-4-(6-(2-hydroxypropan-2-yl)pyridin-3-yl)-2-((R)-1-(2-oxopyrazin-1(2H)-yl)ethyl)-1H-pyrrolo[3,2-c]quinolin-8-yl)propanenitrile] are greater than 7.00, greater than 7.00 and “+++ (a Caco-2 value of >1)”.
